Experimental data reported in US6809091B1, “Substances capable of inducing apoptosis” (Takara Bio Inc., priority 1998, dated 2004).

Legend:
[1] = system: NO production in RAW 264.7 cells; experiment: inhibition of NO production, NO2− by Griess reagent; type: cell-based
Description: (1) RAW 264.7 cells (ATCC TIB 71) were suspended to an extent of 3×10^5 cells/ml in an Eagle's medium modified by Dulbecco (manufactured by BioWhittaker; 12-917F) containing 10% fetal bovine serum (manufactured by Gibco), no Phenol Red and 2 mM of L-glutamine (manufactured by Lifetech Oriental; 25030-149) and each 500 μl of the suspension were added to each well of a 48-well microtiter plate and incubated at 37° C. for 12 hours in the presence of 5% carbon dioxide gas. To the well were added 10 μl of a 50 μg/ml lipopolysaccharide (LPS; manufactured by Sigma, L-2012) or each 10 μl of a 2.5 μg/ml of LPS and a 500 units/ml of interferon γ (manufactured by Genzyme; code MG-IFN), then 10 μl of a 1000, 500 or 250 μM aqueous solution of 2-(trans-3,4-dihydroxy-1-butenyl)-4-(trans-2-formylvinyl)-1,3-dioxolane were added, the mixture was incubated for 18 hours more and the NO2^− concentration generated by oxidation of NO in the medium was measured. Incidentally, a section to which LPS and interferon γ were not added and a section to which 2-(trans-3,4-dihydroxy-1-butenyl)-4-(trans-2-formylvinyl)-1,3-dioxolane was not added were prepared as controls.
After the above incubation, 100 μl of a 4% Griess reagent (manufactured by Sigma; G4410) were added to 100 μl of the medium, the mixture was allowed to stand at room temperature for 15 minutes and the absorbance at 490 nm was measured. From a calibration curve prepared by NaNO2 of known concentrations dissolved in the above medium, the NO2^− concentration in the medium was calculated. All measurements were conducted in three series.

RAW 264.7 cells = experiment: cell growth in the NO production test; type: cell-based; details: final concentration of 10 μM
HL-60 cells = experiment: measurement of apoptosis cells using FACScan; type: cell-based, human; details: HL-60, 24 hours and 48 hours
Description: (2) HL-60 cells which were incubated on an RPMI 1640 medium containing 10% of fetal bovine serum processed at 56° C. for 30 minutes were suspended in an RPMI 1640 medium to make 2.5×10^5 cells/5 ml. […]

human TGF-β = experiment: cytokine production in DSEK cells, ELISA; type: cell-based; details: DSEK cell incubation, supernatant every 24 hours
Description: (§1) Now, in the DSEK cell incubation, 150 μl/well of the supernatant liquid of the medium were recovered every 24 hours and influence of 4-hydroxy-2-cyclopenten-1-one or 4,5-dihydroxy-2-pentenal on the production of cytokines (human TGF-β, human FGF-β, human IL-1α and human IL-10) was measured using an ELISA-kit specific to each of the cytokine (the kit manufactured by INTERGEN or human FGF-β and human IL-10; and the kit manufactured by Promega for human IL-1α and human TGF-β).

human IL-10 = experiment: cytokine production in DSEK cells, ELISA; type: cell-based; details: DSEK cell incubation, supernatant every 24 hours
Description: as §1

## O=C/C=C/C1COC(/C=C/C(O)CO)O1 (stereo not drawn) [2-(trans-3,4-dihydroxy-1-butenyl)-4-(trans-2-formylvinyl)-1,3-dioxolane]
[1]; 18 hours
  induction of NO production by LPS: inhibited
  induction of NO production by LPS and interferon γ: inhibited
[1]; Mus musculus, RAW264.7, final concentration of 10 μM, read-out: inhibiting activity for NO production
  inhibition at 10 µM: ~50%
RAW 264.7 cells
  inhibition of cell growth: no inhibition of cell growth was noted at all

## Nc1nc2c(ncn2C2C=CC(=O)C2)c(=O)[nH]1 (stereo not shown) [4-(9-guaninyl)-2-cyclopenten-1-one]
HL-60 cells
  final concentration at which apoptosis cells were confirmed: ≥ 20 µM
Human TGF-β
  production of human TGF-β: inhibited

## O=CC=CC(O)CO (single isomer, unassigned) [4,5-dihydroxy-2-pentenal, trans-4,5-dihydroxy-2-pentenal]
Human IL-10
  production of human IL-10: activated
